Laboratory results: patent US5216015A, “Compounds having hypocholesterolemic properties” (priority 1991, dated 1993)
Where two headings read alike, the source gives them in different places.

Experiments:
sterol synthesis = conditions: et al., cited from earlier work
HMG-CoA reductase [1] = test: HMGR Screen: inhibition of HMG-CoA reductase solubilized from rat liver microsomes; type: biochemical
Procedure: (§1) The effectiveness of the compounds of this invention as hypocholesterolemic agents may be determined by the following pharmacologic tests which evaluate the HMG-CoA reductase inhibitory activity of said compounds. The HMGR Screen and Ex Vivo Fasted procedures are standard test procedures; the HMG-CoA reductase inhibitory results generally correlate with the HMG-CoA reductase inhibitory activity found in human patients.
Male rats were acclimated to an alternate 12 hours light-dark cycle for a period of 2-3 weeks. The animals, weighing 180-230 g, were fed ad libitum a rat chow containing 2% cholestyramine for 5 days prior to sacrifice at the mid-dark period. Liver microsomes were prepared and HMG-CoA reductase enzyme was solubilized from the microsomes by freeze-thaw manipulation in high ionic strength buffer. The enzyme preparation was stored at -80° C. in 300 μl portion samples. Prior to use, the enzyme was activated by warming at 37° C. for 30 minutes. A reaction mixture was prepared which consisted of, in a volume of 240 μl: 0.14M potassium phosphate buffer (pH 7.0); 0.18M KCl; 3.5 mM EDTA; 10 mM dithiothreitol; 0.1 mg/ml BSA; 30,000 cpm of [^14 C] HMG-CoA; 20 μM HMG-CoA, and 200 μg of activated enzyme with and without compounds of the present invention (in 10 μl DMSO). After 5 minutes incubation at 37° C. the reaction was initiated with 0.2 mM NADPH. The final assay volume was 300 μl. The reaction was then terminated with 100 μl of 1N HCl. After an additional incubation for 15 minutes at 37° C. to allow for complete lactonization of the product, the mixture was diluted with 3 ml distilled water. The diluted mixture was then poured over a 0.7×1.4 cm column containing 100-200 mesh Bio-Rex ion-exchange resin (chloride form of Bio-Rad) which was equilibrated with distilled water. With this resin the unreacted [^14 C] HMG-CoA was adsorbed and the product [^14 C] mevalonolactone was eluted (80% recovery) directly into scintillation vials. After the addition of 10 ml of Aquasol, radioactivities of the samples were measured in a scintillation counter. Results are reported as % inhibition of the enzyme in the presence of a given concentration of a compound of the present invention as compared with the activity of the enzyme in the absence of said compound, i.e., in the absence of inhibitor.

HMG-CoA reductase [2] = conditions: Brown, et al., J. Biol. Chem. 249 (22), 7306 (1974); cited from earlier work
cholesterol synthesis = test: Ex-Vivo Fasted: inhibition of cholesterol synthesis in liver slices after oral dosing of fasted rats; conditions: Rattus norvegicus, 1 h, p.o. (Na+ salt), livers removed after one hour
Text: as §1
Rats of 170-210 g were maintained on a low cholesterol diet for one week prior to use. Compounds of the present invention (identified in the table below) were given orally in 0.5% methocel to fasted (fasted for 16 hours) rats. After one hour the rats were decapitated and their livers removed and transferred to chilled oxygenated Kreb's-Ringer-bicarbonate buffer (pH 7.4). The livers were then chopped into 0.5 mm slices using a McIlwain tissue chopper, and were suspended in the same buffer. Aliquots of the suspension containing 100 mg tissue were pipetted to culture tubes which contained [^14 C] sodium octanoate (2 μCi, 3 mM). The tubes were gassed with 95% O2 /CO2, capped and incubated at 37° C. in a shaking water bath at 150 oscillation/min. for two hours. The final assay volume was 1.0 ml. […] After visualization with iodine the cholesterol spots were cut and counted with liquid scintillation fluid. […]

[3] = Schroepfer, J. Biol. Chem. 252 (24), 8975 (1977)
[4] = Kandutsch, J. Biol. Chem. 248 (24), 8408 (1974)

CC(C)CCC[C@@H](C)[C@H]1C[C@@H](O)[C@@]2(C)C3=CC[C@H]4C[C@@H](O)CC[C@]4(C)[C@H]3CC[C@]12C [14α-methyl-5α-cholest-7-en-3β,15β-diol]
inhibition of sterol synthesis (sterol synthesis; [3]): potent inhibitors of sterol synthesis

CC(C)CCC[C@@H](C)[C@H]1C[C@@H](O)[C@@H]2C3=CC[C@H]4C[C@@H](O)CC[C@]4(C)[C@H]3CC[C@]12C [5α,14β-cholest-7-en-3β,15β-diol]
inhibition of sterol synthesis (sterol synthesis; [3]): potent inhibitors of sterol synthesis

CC(C)CCC[C@@H](C)[C@H]1C[C@H](O)[C@@H]2C3=CC[C@H]4C[C@@H](O)CC[C@]4(C)[C@H]3CC[C@]12C [5α,14β-cholest-7-en-3β,15α-diol]
inhibition of sterol synthesis (sterol synthesis; [3]): potent inhibitors of sterol synthesis

CO[C@H]1CC[C@@]2(C)[C@@H](CC=C3[C@@H]2CC[C@]2(C)[C@@H]([C@H](C)CCCC(C)C)C[C@H](O)[C@@]32C)C1 [3β-methoxy-14α-methyl-5α-cholest-7-en-15α-ol]
inhibition of sterol synthesis (sterol synthesis; [3]): potent inhibitors of sterol synthesis

CCC(C)(C)C(=O)O[C@H]1C[C@H]2[C@@H]([C@H](OC(C)=O)C[C@@H]3C[C@H](O)CC[C@@]32C)[C@@H]2CC[C@H]([C@H](C)CC3CC(O)CC(=O)O3)[C@@]12C (stereo partly drawn) [Example 3, 7α-acetoxy-12α-(2,2-dimethyl)butyryloxy-3α-hydroxy-17β-[3-(4(R)-hydroxy-3,4,5,6-tetrahydro-2H-pyran-2-on-6(R)-yl)-2(R)-2-propyl]-5β-androstane and 7α-acetoxy-12α-(2,2-dimethyl)butyryloxy-3α-hydroxy-17β-[3-(4(S)-hydroxy-3,4,5,6-tetrahydro-2H-pyran-2-on-6(S)-yl)-2(R)-2-propyl]-5β-androstane]
HMGR Screen % Inhibition (HMG-CoA reductase [1]; Lactone Form, at 30 μM): 23%
HMGR Screen % Inhibition (HMG-CoA reductase [1]; Ring-opened/Sodium Salt, at 300 nM): 21%

CCC(C)(C)C(=O)O[C@H]1C[C@H]2[C@@H](CC[C@@H]3C[C@H](O)CC[C@@]32C)[C@@H]2CC[C@H]([C@H](C)CC3CC(O)CC(=O)O3)[C@@]12C (stereo partly drawn) [Example 2, 12α-(2,2-dimethyl)butyryloxy-3α-hydroxy-17β-[3-(4(R)-hydroxy-3,4,5,6-tetrahydro-2H-pyran-2-on-6(R)-yl)-2(R)-2-propyl]-5β-androstane and 12α-(2,2-dimethyl)butyryloxy-3α-hydroxy-17β-[3-(4(S)-hydroxy-3,4,5,6-tetrahydro-2H-pyran-2-on-6(S)-yl)-2(R)-2-propyl]-5β-androstane]
HMGR Screen % Inhibition (HMG-CoA reductase [1]; Lactone Form, at 30 μM): 33%
HMGR Screen % Inhibition (HMG-CoA reductase [1]; Ring-opened/Sodium Salt, at 352 nM): 50%

CCC(C)(C)C(=O)O[C@H]1C[C@H]2C(=C3CC[C@H]([C@H](C)CC4CC(O)CC(=O)O4)[C@]31C)CC[C@@H]1C[C@H](O)CC[C@@]12C (stereo partly drawn) [Example 4, 12α-(2,2-dimethyl)butyryloxy-3α-hydroxy-17β-[3-(4(R)-hydroxy-3,4,5,6-tetrahydro-2H-pyran-2-on-6(R)-yl)-2(R)-2-propyl]-5β-androst-8(14)ene and 12α-(2,2-dimethyl)butyryloxy-3α-hydroxy-17β-[3-(4(S)-hydroxy-3,4,5,6-tetrahydro-2H-pyran-2-on-6(S)-yl)-2(R)-2-propyl]-5β-androst-8(14)-ene]
HMGR Screen % Inhibition (HMG-CoA reductase [1]; Lactone Form, at 3 μM): 19%
HMGR Screen % Inhibition (HMG-CoA reductase [1]; Ring-opened/Sodium Salt, at 119 nM): 50%

CC(C)CCC[C@@H](C)[C@H]1CC[C@H]2[C@@H]3C(=O)C=C4C[C@@H](O)CC[C@]4(C)[C@H]3CC[C@]12C [7-ketocholesterol]
inhibition of sterol synthesis (sterol synthesis; [4]): inhibit sterol synthesis
suppression of HMG-CoA reductase activity (HMG-CoA reductase [2]): suppress HMG-CoA reductase activity

CC(C)CCC[C@@H](C)[C@H]1C[C@H](O)[C@@]2(C)C3=CC[C@H]4C[C@@H](O)CC[C@]4(C)[C@H]3CC[C@]12C [14α-methyl-5α-cholest-7-en-3β,15α-diol]
inhibition of sterol synthesis (sterol synthesis; [3]): potent inhibitors of sterol synthesis

CCC(C)(C)C(=O)O[C@H]1C[C@H]2C(=C3CC[C@H](CC[C@@H]4C[C@@H](O)CC(=O)O4)[C@]31C)CC[C@@H]1C[C@H](O)CC[C@@]12C [Example 5, 12α-(2,2-dimethyl)butyryloxy-3α-hydroxy-17β-[2-(4(R)-hydroxy-3,4,5,6-tetrahydro-2H-pyran-2-on-6(R)-yl)-ethyl]-5β-androst-8(14)-ene]
HMGR Screen % Inhibition (HMG-CoA reductase [1]; Lactone Form, at 1.6 μM): 50%
HMGR Screen % Inhibition (HMG-CoA reductase [1]; Ring-opened/Sodium Salt, at 16.9 nM): 50%
inhibition at 3 mg/kg (cholesterol synthesis): 47%

CC(C)CCC[C@@H](C)[C@H]1CC(=O)[C@@]2(C)C3=CC[C@H]4C[C@@H](O)CC[C@]4(C)[C@H]3CC[C@]12C [14α-methyl-5α-cholest-7-en-3β-ol-15-one]
inhibition of sterol synthesis (sterol synthesis; [3]): potent inhibitors of sterol synthesis

CC(C)CCC[C@@H](C)[C@H]1CC[C@H]2[C@@H]3[C@@H](O)C=C4C[C@@H](O)CC[C@]4(C)[C@H]3CC[C@]12C [7β-hydroxycholesterol]
inhibition of sterol synthesis (sterol synthesis; [4]): inhibit sterol synthesis

CCC(C)(C)C(=O)O[C@H]1C[C@H]2[C@@H](CC[C@@H]3C[C@H](O)CC[C@@]32C)[C@@H]2CCC=C(/C=C/C3CC(O)CC(=O)O3)[C@@]12C (stereo partly drawn) [Example 1, 12α-(2,2-dimethyl)butyryloxy-3α-hydroxy-17a-[E-2-(4(R)-hydroxy-3,4,5,6-tetrahydro-2H-pyran-2-on-6(S)-yl)ethenyl]-D-homo-5β-androst-17-ene and 12α-(2,2-dimethyl)butyryloxy-3α-hydroxy-17a-[E-2-(4(S)-hydroxy-3,4,5,6-tetrahydro-2H-pyran-2-on-6(R)-yl)ethenyl]-D-homo-5β-androst-17-ene]
HMGR Screen % Inhibition (HMG-CoA reductase [1]; Lactone Form, at 5.9 μM): 50%
HMGR Screen % Inhibition (HMG-CoA reductase [1]; Ring-opened/Sodium Salt, at 228 nM): 50%

CC(C)CCC[C@@H](C)[C@H]1C[C@H](O)C2=C3CC[C@H]4C[C@@H](O)CC[C@]4(C)[C@H]3CC[C@@]21C [5α-cholest-8(14)-en-3β,15α-diol]
inhibition of sterol synthesis (sterol synthesis; [3]): potent inhibitors of sterol synthesis

CC(C)CCC[C@@H](C)[C@H]1C[C@@H](O)C2=C3CC[C@H]4C[C@@H](O)CC[C@]4(C)[C@H]3CC[C@@]21C [5α-cholest-8(14)-en-3β,15β-diol]
inhibition of sterol synthesis (sterol synthesis; [3]): potent inhibitors of sterol synthesis

CC(C)CCC[C@@H](C)[C@H]1CC[C@H]2[C@@H]3[C@H](O)C=C4C[C@@H](O)CC[C@]4(C)[C@H]3CC[C@]12C [7α-hydroxycholesterol]
inhibition of sterol synthesis (sterol synthesis; [4]): inhibit sterol synthesis

CC(C)CCC[C@@H](C)[C@H]1CC(O)C2=C3C(O)C[C@H]4C[C@@H](O)CC[C@]4(C)[C@H]3CC[C@@]21C (stereo partly drawn) [5α-cholest-8(14)-en-3β,7.xi.,15.xi.-triol]
inhibition of sterol synthesis (sterol synthesis; [3]): potent inhibitors of sterol synthesis

CO[C@H]1CC[C@@]2(C)[C@@H](CC=C3[C@@H]2CC[C@]2(C)[C@@H]([C@H](C)CCCC(C)C)C[C@@H](O)[C@@]32C)C1 [3β-methoxy-14α-methyl-5α-cholest-7-en-15β-ol]
inhibition of sterol synthesis (sterol synthesis; [3]): potent inhibitors of sterol synthesis
